Laboratory results reported in US11406629B2, “Solid forms comprising 4-amino-2-(2,6-dioxopiperidine-3-yl)isoindoline-1,3-dione and a coformer, compositions and methods of use thereof” (Celgene Corporation, priority 2013, dated 2022).
Values after ≈ are worked out from the molar mass of the structure shown. Where two headings read alike, the source gives them in different places.

How the values were obtained:
[1] = Slurry of Form B of pomalidomide in EtOH, 0.1 N HCl, or water (solid form conversion); type: physicochemical; details: slurring in EtOH, 0.1 N HCl, or water for 3 days
From the text: In one embodiment, without being limited by particular theory, Form B is a metastable form of pomalidomide.

[2] = Solubility of pomalidomide in various solvents at ambient temperature (visual inspection, solvent aliquot addition); type: physicochemical
Experimental: Solubility was estimated by treating a weighed sample of pomalidomide with measured aliquots of the test solvent at ambient temperature, with shaking and/or sonication between aliquots. Dissolution was determined by visual inspection. Solubility numbers were calculated by […]. The actual solubilities may be greater than the numbers calculated because of the use of solvent aliquots that were too large or because of slow dissolution rates. […] The solubility number is expressed as “greater than” if dissolution occurred on addition of the first solvent aliquot.

| Solid form stability on slurrying [1] | solubility ([2]; Acetone) [mg/mL] | solubility ([2]; DMF:acetone (1:2)) [mg/mL] | solubility ([2]; Hexafluoroisopropanol) [mg/mL] | solubility ([2]; THF:water (95:5)) [mg/mL] | solubility ([2]; organic solvent or mixture, thermodynamic from solid, 2,2,2-trifluoroethanol, read-out: Solubility) [mg/mL] | solubility ([2]; organic solvent or mixture, thermodynamic from solid, 2-methyltetrahydrofuran, read-out: Solubility) [mg/mL] | solubility ([2]; organic solvent or mixture, thermodynamic from solid, Acetonitrile, read-out: Solubility) [mg/mL] | solubility ([2]; organic solvent or mixture, thermodynamic from solid, DMF, read-out: Solubility) [mg/mL] | solubility ([2]; organic solvent or mixture, thermodynamic from solid, DMF:methanol (1:1), read-out: Solubility) [mg/mL] | solubility ([2]; organic solvent or mixture, thermodynamic from solid, DMF:methanol (1:2), read-out: Solubility) [mg/mL] | solubility ([2]; organic solvent or mixture, thermodynamic from solid, Dichloromethane, read-out: Solubility) [mg/mL] | solubility ([2]; organic solvent or mixture, thermodynamic from solid, Methanol, read-out: Solubility) [mg/mL] | solubility ([2]; organic solvent or mixture, thermodynamic from solid, acetone:water (95:5), read-out: Solubility) [mg/mL] | solubility ([2]; tetrahydrofuran (THF)) [mg/mL] | SMILES |
| --- | --- | --- | --- | --- | --- | --- | --- | --- | --- | --- | --- | --- | --- | --- | --- |
| converts to Form A of pomalidomide | – | – | – | – | – | – | – | – | – | – | – | – | – | – | Nc1cccc2c1C(=O)N(C1CCC(=O)NC1=O)C2=O (stereo not drawn) [Form B of pomalidomide, 4-amino-2-(2,6-dioxopiperidine-3-yl)isoindoline-1,3-dione] |
| – | 0.9 (≈ 3.29 mM) | 6.0 (≈ 22 mM) | 2.3 (≈ 8.42 mM) | 3.5 (≈ 12.8 mM) | < 1 | < 1 | < 1 | > 5 | 4.2 (≈ 15.4 mM) | 2.4 (≈ 8.78 mM) | < 1 | < 1 | < 1 | 1.1 (≈ 4.03 mM) | Nc1cccc2c1C(=O)N(C1CCC(=O)NC1=O)C2=O (stereo not drawn) [Pomalidomide, 4-amino-2-(2,6-dioxopiperidine-3-yl)isoindoline-1,3-dione] |
